Source: article PMC4634248 (Influenza and Other Respiratory Viruses, 2013)
Entries after “also recorded” stand apart in the source; their conditions may differ.

Tested on: NA activity of A(H1N1)pdm09 viruses with the H275Y substitution
Format: biochemical, influenza A(H1N1)pdm09 virus

SMILES	IC50 values of H275Y mutants relative to those of viruses with 275H	resistance / sensitivity of H275Y mutant viruses to the NA inhibitor	fold increased IC50 values (decreased susceptibility) of H275Y mutant viruses compared with 275H
[H]/N=C(\N)N[C@H]1C=C(C(=O)O)O[C@@H]([C@H](OC)[C@H](O)CO)[C@@H]1NC(C)=O [laninamivir]	comparable	sensitive	–
CCC(CC)O[C@@H]1C=C(C(=O)O)C[C@H](N)[C@H]1NC(C)=O [oseltamivir, oseltamivir carboxylate]	–	resistance; also recorded: resistant	about 400 fold
CCC(CC)[C@H](NC(C)=O)[C@@H]1[C@H](O)[C@@H](C(=O)O)C[C@H]1N=C(N)N [peramivir]	–	resistance; also recorded: resistant	~140 fold
CC(=O)N[C@H]1[C@H]([C@H](O)[C@H](O)CO)OC(C(=O)O)=C[C@@H]1N=C(N)N [zanamivir]	comparable	sensitive	–
